Measurements: patent US20240254096A1, “ULTRAVIOLET AND VISIBLE RADIATION ABSORBING COMPOUNDS” (ELKIMIA INC., priority 2021, published 2024)

Experiment: Thermal stability by Thermogravimetric Analysis (TGA)
Format: physicochemical
Details: 100 (° C.)
Method: Briefly, the residual weight (%) of the compounds was measured at different temperatures, including 100° C. for water boiling, and other temperatures corresponding to extrusion processes, and the T onset (° C.) by intersection points of tangents was checked. The results are represented in Table 16 below, and in FIG. 6.

Structure (SMILES)	Residual weight % at different temperatures
CCOC(=O)CNC1=C/C(=N/c2ccccc2)CC(C)(C)C1 [Formula 46]	99.4 w %
CCOC(=O)CNC1=C/C(=N/c2ccc(Nc3ccccc3)cc2)CC(C)(C)C1 [Formula 47]	99.5 w %
CCOC(=O)CNC1=C/C(=N/c2ccc(N3CCOCC3)cc2)CC(C)(C)C1 [Formula 48]	99.2 w %
CCOC(=O)CNC1=C/C(=N/c2ccc(OCc3ccccc3)cc2)CC(C)(C)C1 [Formula 49]	99.3 w %
CCOC(=O)CNC1=C/C(=N/c2ccc(Oc3ccccc3)cc2)CC(C)(C)C1 [Formula 50]	99.2 w %
CCOC(=O)CNC1=C/C(=N/c2ccc(C(C)=O)cc2)CC(C)(C)C1 [Formula 51]	99.5 w %
CCOC(=O)CNC1=C/C(=N/c2ccc(N(C)C)cc2)CC(C)(C)C1 [Formula 52]	95.9 w %
CCOC(=O)CNC1=C/C(=N/c2ccc(OC(F)(F)F)cc2)CC(C)(C)C1 [Formula 53]	99.5 w %
CCOC(=O)CNC1=C/C(=N/c2ccc(NC(=O)OC(C)(C)C)cc2)CC(C)(C)C1 [Formula 54]	98.0 w %
CCOC(=O)CNC1=C/C(=N/c2ccc(Cn3cncn3)cc2)CC(C)(C)C1 [Formula 55]	97.8 w %
CCOC(=O)CNC1=C/C(=N/c2ccc3c(c2)OCCO3)CC(C)(C)C1 [Formula 56]	99.4 w %
CCOC(=O)C1CSC2=C(CC(C)(C)C/C2=N\c2ccc(OCc3ccccc3)cc2)N1 (centres unmarked) [Formula 60]	97.8 w %
CCOC(=O)C1CSC2=C(CC(C)(C)C/C2=N\c2ccc(Oc3ccccc3)cc2)N1 (centres unmarked) [Formula 61]	99.0 w %

Same assay, conditions: 190 (° C.)

Structure (SMILES)	Residual weight % at different temperatures
CCOC(=O)CNC1=C/C(=N/c2ccccc2)CC(C)(C)C1 [Formula 46]	99.1 w %
CCOC(=O)CNC1=C/C(=N/c2ccc(Nc3ccccc3)cc2)CC(C)(C)C1 [Formula 47]	99.2 w %
CCOC(=O)CNC1=C/C(=N/c2ccc(N3CCOCC3)cc2)CC(C)(C)C1 [Formula 48]	98.8 w %
CCOC(=O)CNC1=C/C(=N/c2ccc(OCc3ccccc3)cc2)CC(C)(C)C1 [Formula 49]	97.8 w %
CCOC(=O)CNC1=C/C(=N/c2ccc(Oc3ccccc3)cc2)CC(C)(C)C1 [Formula 50]	98.1 w %
CCOC(=O)CNC1=C/C(=N/c2ccc(C(C)=O)cc2)CC(C)(C)C1 [Formula 51]	96.1 w %
CCOC(=O)CNC1=C/C(=N/c2ccc(N(C)C)cc2)CC(C)(C)C1 [Formula 52]	92.4 w %
CCOC(=O)CNC1=C/C(=N/c2ccc(OC(F)(F)F)cc2)CC(C)(C)C1 [Formula 53]	98.6 w %
CCOC(=O)CNC1=C/C(=N/c2ccc(NC(=O)OC(C)(C)C)cc2)CC(C)(C)C1 [Formula 54]	84.0 w %
CCOC(=O)CNC1=C/C(=N/c2ccc(Cn3cncn3)cc2)CC(C)(C)C1 [Formula 55]	96.4 w %
CCOC(=O)CNC1=C/C(=N/c2ccc3c(c2)OCCO3)CC(C)(C)C1 [Formula 56]	98.9 w %
CCOC(=O)C1CSC2=C(CC(C)(C)C/C2=N\c2ccc(OCc3ccccc3)cc2)N1 (centres unmarked) [Formula 60]	85.6 w %
CCOC(=O)C1CSC2=C(CC(C)(C)C/C2=N\c2ccc(Oc3ccccc3)cc2)N1 (centres unmarked) [Formula 61]	98.2 w %

Same assay, conditions: 210 (° C.)

Structure (SMILES)	Residual weight % at different temperatures
CCOC(=O)CNC1=C/C(=N/c2ccccc2)CC(C)(C)C1 [Formula 46]	98.4 w %
CCOC(=O)CNC1=C/C(=N/c2ccc(Nc3ccccc3)cc2)CC(C)(C)C1 [Formula 47]	99.0 w %
CCOC(=O)CNC1=C/C(=N/c2ccc(N3CCOCC3)cc2)CC(C)(C)C1 [Formula 48]	97.8 w %
CCOC(=O)CNC1=C/C(=N/c2ccc(OCc3ccccc3)cc2)CC(C)(C)C1 [Formula 49]	97.2 w %
CCOC(=O)CNC1=C/C(=N/c2ccc(Oc3ccccc3)cc2)CC(C)(C)C1 [Formula 50]	97.9 w %
CCOC(=O)CNC1=C/C(=N/c2ccc(C(C)=O)cc2)CC(C)(C)C1 [Formula 51]	85.8 w %
CCOC(=O)CNC1=C/C(=N/c2ccc(N(C)C)cc2)CC(C)(C)C1 [Formula 52]	86.0 w %
CCOC(=O)CNC1=C/C(=N/c2ccc(OC(F)(F)F)cc2)CC(C)(C)C1 [Formula 53]	86.3 w %
CCOC(=O)CNC1=C/C(=N/c2ccc(NC(=O)OC(C)(C)C)cc2)CC(C)(C)C1 [Formula 54]	72.7 w %
CCOC(=O)CNC1=C/C(=N/c2ccc(Cn3cncn3)cc2)CC(C)(C)C1 [Formula 55]	92.2 w %
CCOC(=O)CNC1=C/C(=N/c2ccc3c(c2)OCCO3)CC(C)(C)C1 [Formula 56]	94.3 w %
CCOC(=O)C1CSC2=C(CC(C)(C)C/C2=N\c2ccc(OCc3ccccc3)cc2)N1 (centres unmarked) [Formula 60]	77.0 w %
CCOC(=O)C1CSC2=C(CC(C)(C)C/C2=N\c2ccc(Oc3ccccc3)cc2)N1 (centres unmarked) [Formula 61]	92.6 w %

Same assay, conditions: 250 (° C.)

Structure (SMILES)	Residual weight % at different temperatures
CCOC(=O)CNC1=C/C(=N/c2ccccc2)CC(C)(C)C1 [Formula 46]	52.4 w %
CCOC(=O)CNC1=C/C(=N/c2ccc(Nc3ccccc3)cc2)CC(C)(C)C1 [Formula 47]	79.5 w %
CCOC(=O)CNC1=C/C(=N/c2ccc(N3CCOCC3)cc2)CC(C)(C)C1 [Formula 48]	72.9 w %
CCOC(=O)CNC1=C/C(=N/c2ccc(OCc3ccccc3)cc2)CC(C)(C)C1 [Formula 49]	70.2 w %
CCOC(=O)CNC1=C/C(=N/c2ccc(Oc3ccccc3)cc2)CC(C)(C)C1 [Formula 50]	69.3 w %
CCOC(=O)CNC1=C/C(=N/c2ccc(C(C)=O)cc2)CC(C)(C)C1 [Formula 51]	65.1 w %
CCOC(=O)CNC1=C/C(=N/c2ccc(N(C)C)cc2)CC(C)(C)C1 [Formula 52]	63.2 w %
CCOC(=O)CNC1=C/C(=N/c2ccc(OC(F)(F)F)cc2)CC(C)(C)C1 [Formula 53]	40.5 w %
CCOC(=O)CNC1=C/C(=N/c2ccc(NC(=O)OC(C)(C)C)cc2)CC(C)(C)C1 [Formula 54]	60.1 w %
CCOC(=O)CNC1=C/C(=N/c2ccc(Cn3cncn3)cc2)CC(C)(C)C1 [Formula 55]	71.2 w %
CCOC(=O)CNC1=C/C(=N/c2ccc3c(c2)OCCO3)CC(C)(C)C1 [Formula 56]	68.0 w %
CCOC(=O)C1CSC2=C(CC(C)(C)C/C2=N\c2ccc(OCc3ccccc3)cc2)N1 (centres unmarked) [Formula 60]	58.2 w %
CCOC(=O)C1CSC2=C(CC(C)(C)C/C2=N\c2ccc(Oc3ccccc3)cc2)N1 (centres unmarked) [Formula 61]	62.1 w %

Same assay, conditions: by intersection points of tangents

Structure (SMILES)	T onset
CCOC(=O)CNC1=C/C(=N/c2ccccc2)CC(C)(C)C1 [Formula 46]	215.2 C
CCOC(=O)CNC1=C/C(=N/c2ccc(Nc3ccccc3)cc2)CC(C)(C)C1 [Formula 47]	226.0 C
CCOC(=O)CNC1=C/C(=N/c2ccc(N3CCOCC3)cc2)CC(C)(C)C1 [Formula 48]	215.7 C
CCOC(=O)CNC1=C/C(=N/c2ccc(OCc3ccccc3)cc2)CC(C)(C)C1 [Formula 49]	215.3 C
CCOC(=O)CNC1=C/C(=N/c2ccc(Oc3ccccc3)cc2)CC(C)(C)C1 [Formula 50]	229.5 C
CCOC(=O)CNC1=C/C(=N/c2ccc(C(C)=O)cc2)CC(C)(C)C1 [Formula 51]	188.0 C
CCOC(=O)CNC1=C/C(=N/c2ccc(N(C)C)cc2)CC(C)(C)C1 [Formula 52]	199.1 C
CCOC(=O)CNC1=C/C(=N/c2ccc(OC(F)(F)F)cc2)CC(C)(C)C1 [Formula 53]	199.3 C
CCOC(=O)CNC1=C/C(=N/c2ccc(NC(=O)OC(C)(C)C)cc2)CC(C)(C)C1 [Formula 54]	176.7 C
CCOC(=O)CNC1=C/C(=N/c2ccc(Cn3cncn3)cc2)CC(C)(C)C1 [Formula 55]	205.0 C
CCOC(=O)CNC1=C/C(=N/c2ccc3c(c2)OCCO3)CC(C)(C)C1 [Formula 56]	207.6 C
CCOC(=O)C1CSC2=C(CC(C)(C)C/C2=N\c2ccc(OCc3ccccc3)cc2)N1 (centres unmarked) [Formula 60]	168.9 C
CCOC(=O)C1CSC2=C(CC(C)(C)C/C2=N\c2ccc(Oc3ccccc3)cc2)N1 (centres unmarked) [Formula 61]	205.0 C
